Assay [1] deals with T1, 14-3-3γ/ChREBP (Homo sapiens, UniProt P61981+Q9NP71).
T1 construct: made in house; host or cells: E. coli NiCo21 (DE3) for 14-3-3 gamma; ChREBP is a synthetic peptide
T1 sequence (P61981 1-247): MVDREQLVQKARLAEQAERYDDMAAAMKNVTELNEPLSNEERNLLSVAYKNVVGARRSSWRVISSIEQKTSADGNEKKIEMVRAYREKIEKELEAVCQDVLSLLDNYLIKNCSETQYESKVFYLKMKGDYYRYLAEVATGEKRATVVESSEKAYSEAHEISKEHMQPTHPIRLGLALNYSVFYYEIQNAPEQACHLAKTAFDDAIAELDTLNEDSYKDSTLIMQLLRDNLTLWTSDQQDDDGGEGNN
T1 sequence (Q9NP71 118-142 partner limits assumed): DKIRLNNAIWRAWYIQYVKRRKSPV
In words: 2D FA titration of 14-3-3/ChREBP and cooperativity analysis with thermodynamic equilibrium model. The settings on record: determined by the thermodynamic model from 2D FA titrations; 95% confidence interval; read-out: apparent binding affinity of ChREBP for 14-3-3 (K^IID). It is filed as binding. On the procedure:
a four-parameter logistic model (4PL). Each measurement was performed in two independent […]
Fluorescence anisotropy (FA) - 2D-14-3-3/ChREBP titrations: 14-3-3γ was titrated in a 2-fold dilution series (starting at 300 µM 14-3-3γ) to 20 nM of fluorescein-labeled peptide 2d in FA buffer (10 mM HEPES pH 7.4, 150 mM NaCl, 0.1% (v/v) Tween20, 0.1% (w/v) BSA) in presence of 2-fold dilution series of unlabeled ChREBP peptide (0.01-10 µM). Dilution series were made in a polystyrene (non-binding) low-volume Corning Black Round Bottom 384-well plates (Corning 4514 or 4511). Measurements were performed directly after plate preparation, using a Tecan Infinite F500 plate reader at room temperature (lex: 485 ± 20 nm; lem: 535 ± 25 nm; mirror: Dichroic 510; flashes: 20; integration time: 50 ms; settle time:
0 ms; gain: optimal; and Z-position: calculated from well). Wells containing only FITC-peptide were used to set as G-factor at 35 mP. All data were analyzed using GraphPad Prism (7.00) for Windows and fitted using a four-parameter logistic model (4PL). […]
with R = 14-3-3, P = non-natural peptide (labelled), and C = ChREBP. The framework determined based on this system description the equilibrium equations needed to determine KDII and α. […] From this the model determined the KDII and α (with 95% confidence interval) and the error-landscape of the determine parameters. […]

In assay [2] the target is T2, ChREBP peptide (Homo sapiens, UniProt Q9NP71).
T2 chain: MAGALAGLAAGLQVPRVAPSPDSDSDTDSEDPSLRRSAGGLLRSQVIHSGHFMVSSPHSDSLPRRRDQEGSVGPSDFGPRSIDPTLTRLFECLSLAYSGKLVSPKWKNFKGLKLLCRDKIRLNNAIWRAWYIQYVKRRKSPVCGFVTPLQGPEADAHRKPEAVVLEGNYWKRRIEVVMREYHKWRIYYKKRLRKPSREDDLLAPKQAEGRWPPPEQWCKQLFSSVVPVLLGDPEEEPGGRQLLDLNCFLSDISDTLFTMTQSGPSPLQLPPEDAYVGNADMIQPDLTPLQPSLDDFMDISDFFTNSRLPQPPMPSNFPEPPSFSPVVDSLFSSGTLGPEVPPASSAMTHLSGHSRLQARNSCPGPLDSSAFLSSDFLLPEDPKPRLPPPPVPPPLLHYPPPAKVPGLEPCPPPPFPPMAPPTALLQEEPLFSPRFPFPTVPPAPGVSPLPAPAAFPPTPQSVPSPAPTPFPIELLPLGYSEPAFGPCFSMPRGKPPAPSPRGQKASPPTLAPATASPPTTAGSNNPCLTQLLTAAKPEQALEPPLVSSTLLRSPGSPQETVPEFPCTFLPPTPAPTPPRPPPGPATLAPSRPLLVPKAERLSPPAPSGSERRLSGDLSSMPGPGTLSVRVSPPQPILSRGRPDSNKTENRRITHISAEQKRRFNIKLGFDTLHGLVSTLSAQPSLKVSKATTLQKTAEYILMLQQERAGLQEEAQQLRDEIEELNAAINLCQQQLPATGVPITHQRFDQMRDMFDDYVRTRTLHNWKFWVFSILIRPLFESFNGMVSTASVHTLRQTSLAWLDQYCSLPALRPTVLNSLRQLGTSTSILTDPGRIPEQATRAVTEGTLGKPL
In words: 2D fluorescence anisotropy titration, thermodynamic equilibrium model fit. For orientation: In fluorescence polarisation assays a small probe gives low polarisation when free and higher when bound to something large.

Where a SMILES comes first, the peptide text is derived from it.

Turning to `CC[C@H](C)[C@H](NC(=O)[C@H](C)NC(=O)[C@H](CC(N)=O)NC(=O)[C@H](CC(N)=O)NC(=O)[C@H](CC(C)C)NC(=O)[C@H](CCCNC(=N)N)NC(=O)[C@@H](NC(=O)[C@H](CCCCN)NC(=O)[C@H](CC(=O)O)NC(C)=O)[C@@H](C)CC)C(=O)N[C@@H](Cc1c[nH]c2ccccc12)C(=O)N[C@@H](CCCNC(=N)N)C(=O)N[C@@H](C)C(=O)N[C@@H](Cc1c[nH]c2ccccc12)C(=O)N[C@@H](Cc1ccc(O)cc1)C(=O)N[C@H](C(=O)N[C@@H](CCC(N)=O)C(=O)N[C@@H](Cc1ccc(O)cc1)C(=O)N[C@H](C(=O)N[C@@H](CCCCN)C(=O)N[C@@H](CCCNC(=N)N)C(=O)N[C@@H](CCCNC(=N)N)C(=O)N[C@@H](CCCCN)C(=O)N[C@@H](CO)C(=O)N1CCC[C@H]1C(=O)N[C@H](C(N)=O)C(C)C)C(C)C)[C@@H](C)CC` [ChREBP, reference compound] (Ac-DKIRLNNAIWRAWYIQYVKRRKSPV-NH2), in assay [1], the Kd was determined as 1.6 µM.

B1: 14-3-3γ (protein)
chain: VDREQLVQKARLAEQAERYDDMAAAMKNVTELNEPLSNEERNLLSVAYKNVVGARRSSWRVISSIEQKTSADGNEKKIEMVRAYREKIEKELEAVCQDVLSLLDNYLIKNCSETQYESKVFYLKMKGDYYRYLAEVATGEKRATVVESSEKAYSEAHEISKEHMQPTHPIRLGLALNYSVFYYEIQNAPEQACHLAKTAFDDAIAELDTLNEDSYKDSTLIMQLLRDNLTLWTSDQQDDDGGEGNN
On to B1, for which the Kd in assay [2] came out at 1.6 µM.

Source of the values: paper PMC9667936, “Functional mapping of the 14-3-3 hub protein as a guide to design 14-3-3 molecular glues” (Chemical Science, 2022).
